Assay results from PubChem BioAssay (NCI).
Values after ≈ are worked out from the molar mass of the structure shown.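 Method: 48-hour compound exposure of cells in 96-well plates, five concentrations, linear interpolation of endpoints. GI50: concentration for 50% inhibition of growth. TGI: concentration producing complete growth inhibition.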

Tests used:
Experiment in all cases: NCI tumour cell line growth inhibition, 48 h
EKVX NSCLC = system: EKVX NSCLC
HCC-2998 colon = system: HCC-2998 colon
K-562 leukemia = system: K-562 leukemia
KM12 colon = system: KM12 colon
LOX IMVI melanoma = system: LOX IMVI melanoma
MALME-3M melanoma = system: MALME-3M melanoma
OVCAR-4 ovarian = system: OVCAR-4 ovarian
RPMI-8226 leukemia = system: RPMI-8226 leukemia
SK-MEL-28 melanoma = system: SK-MEL-28 melanoma
SR leukemia = system: SR leukemia

| Compound | TGI (EKVX NSCLC) | TGI (HCC-2998 colon) [µM] | TGI (K-562 leukemia) | TGI (KM12 colon) | TGI (LOX IMVI melanoma) | TGI (MALME-3M melanoma) | TGI (OVCAR-4 ovarian) | TGI (RPMI-8226 leukemia) | TGI (SK-MEL-28 melanoma) | TGI (SR leukemia) | GI50 (EKVX NSCLC) | GI50 (K-562 leukemia) [µg/mL] | GI50 (KM12 colon) | GI50 (LOX IMVI melanoma) [µg/mL] | GI50 (MALME-3M melanoma) | GI50 (OVCAR-4 ovarian) [µg/mL] | GI50 (RPMI-8226 leukemia) [µg/mL] | GI50 (SK-MEL-28 melanoma) [µg/mL] | GI50 (SR leukemia) [µg/mL] |
| --- | --- | --- | --- | --- | --- | --- | --- | --- | --- | --- | --- | --- | --- | --- | --- | --- | --- | --- | --- |
| Cc1c2ccncc2cc2c1[nH]c1ccccc12 | 16.3 µM | 15.7 | 6.01 µM | 23.9 µM | 7.35 µM | 20.5 µM | 33.2 µM | 8.7 µM | 5.91 µM | – | – | – | – | – | – | – | – | – | – |
| Nc1[nH]nc(Nc2ccc(Cl)cc2)c1P(=O)(c1ccccc1)c1ccccc1 | > 100 µM | 60.2 | > 100 µM | 37.5 µM | > 100 µM | 47.9 µM | 80.8 µM | > 100 µM | 64.9 µM | > 100 µM | – | – | – | – | – | – | – | – | – |
| CC(=O)Nc1ccc(C(=O)NN2C(=O)C(Cl)/C2=C/c2ccco2)cc1 (stereo unspecified) | – | > 100 | > 100 µM | > 100 µM | – | > 100 µM | – | > 100 µM | > 100 µM | > 100 µM | – | – | – | – | – | – | – | – | – |
| CC(=O)c1c(C)nc(SSc2nc(C)c(C(C)=O)c(-c3ccc(Cl)cc3)c2C#N)c(C#N)c1-c1ccc(Cl)cc1 | > 150 µg/mL | – | > 150 µg/mL | > 150 µg/mL | > 150 µg/mL | > 150 µg/mL | > 150 µg/mL | > 150 µg/mL | > 150 µg/mL | > 150 µg/mL | 145 µg/mL | 60.6 (≈ 100 µM) | 133 µg/mL | 49.2 (≈ 81.6 µM) | 50.9 µg/mL | 62.6 (≈ 104 µM) | > 150 | 103 (≈ 171 µM) | > 150 |
| CC(=O)OCC1OC(n2cc(F)c(=O)[nH]c2=O)C(NC(=O)OCc2ccccc2)C(OC(C)=O)C1OC(C)=O (stereo unspecified) | > 100 µM | > 100 | > 100 µM | > 100 µM | > 100 µM | > 100 µM | > 100 µM | > 100 µM | > 100 µM | – | – | – | – | – | – | – | – | – | – |
| CCP(=O)(CC)C(Cl)Cl | – | > 100 | > 100 µM | – | > 100 µM | – | > 100 µM | > 100 µM | > 100 µM | > 100 µM | – | – | – | – | – | – | – | – | – |
| COc1cc(C(C)O)c(S(=O)(=O)CC(C)O)nn1 (stereo unspecified) | > 100 µM | > 100 | > 100 µM | > 100 µM | > 100 µM | > 100 µM | > 100 µM | > 100 µM | > 100 µM | > 100 µM | – | – | – | – | – | – | – | – | – |
| O=C(N/N=C/c1cc(Cl)cc(Cl)c1[O-])c1ccccc1O.O=C(N/N=C/c1cc(Cl)cc(Cl)c1[O-])c1ccccc1O.[Co+2] | 14.8 µM | 6.63 | – | 19.1 µM | 11.8 µM | 16 µM | 7.07 µM | – | 12.1 µM | 0.532 µM | 1.02 µM | – | 0.963 µM | – | 2.19 µM | – | – | – | – |
| O=C1CC2CC3OC3[C@H]3c4cc5c(cc4C(=O)N1C23)OCO5 (stereo partly specified) | > 100 µM | > 100 | > 100 µM | > 100 µM | > 100 µM | > 100 µM | > 100 µM | > 100 µM | > 100 µM | > 100 µM | – | – | – | – | – | – | – | – | – |
